Data on 1 molecule can be found in ChEMBL document CHEMBL5365532, “Discovery of Triazinone Derivatives as Novel, Specific, and Direct NLRP3 Inflammasome Inhibitors for the Treatment of DSS-Induced Ulcerative Colitis” (J Med Chem, 2023).

Data set [1] is described as follows: MRT (0 to t) in BALB/c mouse at 10 mg/kg, po. Conditions: in vivo. In kind it is ADME, organism-based.
Data set [2] is described as follows: Tmax in BALB/c mouse at 10 mg/kg, iv. In kind it is ADME, organism-based. Conditions: in vivo.
For data set [3], the system named is THP-1. The data set is described as follows: Inhibition of K+ efflux in PMA-differentiated human THP-1 cells at 0.8 to 45 uM pretreated with LPS for 3 hrs followed by incubation with compound for 40 mins and later stimulated with nigericin for 35 mins. The class given is functional, cell-based. Conditions: dose 0.8-45 µM, time 75.0 min.
Data set [4] deals with Mus musculus. The experiment in a line: Antiinflammatory activity against DSS-induced ulcerative colitis C57BL/6 mouse model assessed as decrease in IL-1 beta level in colon at 10 to 30 mg/kg, ip fed with DSS for 6 days followed by administration with compound for 5 days and measured on day 11 by ELISA. Conditions: dose 10-30 mg/kg, time 5.0 day. The class given is functional, organism-based. In general terms: ELISA stands for enzyme-linked immunosorbent assay.

The subject of data set [5] is THP-1. The data set is described as follows: Effect on NLRP3 protein expression in PMA-differentiated human THP-1 cells at 0.2 to 0.8 uM pretreated with LPS for 3 hrs followed by incubation with compound for 40 mins and later stimulated with nigericin for 35 mins by western blot analysis. In kind it is functional, cell-based. Conditions: dose 0.2-0.8 µM, time 75.0 min. A general note: A western blot detects proteins with antibodies after separation by electrophoresis.

A short description of data set [6]: Half life in BALB/c mouse at 10 mg/kg, iv. In kind it is ADME, organism-based. Conditions: in vivo.
For data set [7], the system named is Mus musculus. The data set is described as follows: Antiinflammatory activity against DSS-induced ulcerative colitis C57BL/6 mouse model assessed as decrease in goblet cell loss in colon at 10 to 30 mg/kg, ip fed with DSS for 6 days followed by administration with compound for 5 days and measured on day 11 by H and E staining based analysis. Conditions: dose 10-30 mg/kg, time 5.0 day. In kind it is functional, organism-based.

The test system of data set [8] is BMDM. The experiment in a line: Cytotoxicity against C57BL/6 mouse BMDM cells assessed as cell viability at 0.16 to 20 uM incubated for 24 hrs by CCK8 assay. The class given is toxicity, cell-based. Conditions: dose 0.16-20 µM. (Formazan colour is commonly taken as a measure of viable cells.)
In data set [9] the test system is THP-1. The experiment in a line: Effect on pro-IL-1beta protein expression in PMA-differentiated human THP-1 cells at 0.2 to 0.8 uM pretreated with compound for 40 mins followed by LPS challenge for 3 hrs by western blot analysis. In kind it is functional, cell-based. Conditions: dose 0.2-0.8 µM, time 220.0 min.
Data set [10] relates to Mus musculus. The data set is described as follows: Antiinflammatory activity against DSS-induced ulcerative colitis C57BL/6 mouse model assessed as decrease in body weight loss at 10 to 30 mg/kg, ip fed with DSS for 6 days followed by administration with compound for 5 days. In kind it is functional, organism-based. The settings on record: dose 10-30 mg/kg, time 5.0 day.

In data set [11] the test system is Mus musculus. The experiment in a line: Antiinflammatory activity against DSS-induced ulcerative colitis C57BL/6 mouse model assessed as decrease in NLRP3 protein expression in colon at 30 mg/kg, ip fed with DSS for 6 days followed by administration with compound for 5 days and measured on day 11 by western blot analysis. The class given is functional, organism-based. The settings on record: time 5.0 day.

Data set [12] concerns THP-1. The data set is described as follows: Inhibition of Cl- efflux in PMA-differentiated human THP-1 cells at 0.8 to 45 uM pretreated with LPS for 3 hrs followed by incubation with compound for 40 mins and later stimulated with nigericin for 35 mins. In kind it is functional, cell-based. The settings on record: dose 0.8-45 µM, time 75.0 min.
Data set [13] has as its system THP-1. The data set is described as follows: Effect on ASC protein expression in PMA-differentiated human THP-1 cells at 0.2 to 0.8 uM pretreated with LPS for 3 hrs followed by incubation with compound for 40 mins and later stimulated with nigericin for 35 mins by western blot analysis. In kind it is functional, cell-based. The settings on record: dose 0.2-0.8 µM, time 75.0 min.

Data set [14] is described as follows: MRT (0 to t) in BALB/c mouse at 10 mg/kg, iv. In kind it is ADME, organism-based. The settings on record: in vivo.
Data set [15] has as its target NLR family CARD domain-containing protein 4 (Mus musculus) (UniProt Q3UP24). The experiment in a line: Inhibition of NLRC4 inflammasome in C57BL/6 mouse BMDM cells assessed as inhibition of LPS/flagellin-induced IL-1 beta secretion at 0.2 to 0.8 uM pretreated with LPS for 3 hrs followed by incubation with compound for 40 mins and later stimulated with flagellin for 6 hrs by ELISA. In kind it is cell-based. Conditions: dose 0.2-0.8 µM, time 400.0 min.

The nature of data set [16]: AUC (0 to t) in BALB/c mouse at 10 mg/kg, iv. In kind it is ADME, organism-based. The arrangement: dose 10 mg/kg, route iv. Conditions: in vivo.
Data set [17] is described as follows: Cmax in BALB/c mouse at 10 mg/kg, iv. The class given is ADME, organism-based. The arrangement: dose 10 mg/kg, route iv. The settings on record: in vivo.
Data set [18] in a line: Apparent clearance in BALB/c mouse at 10 mg/kg, po. In kind it is ADME, organism-based. Conditions: in vivo.

The source made the active and inactive calls. The calls are words filed in the database; no cut-off is given here.

Chain of NLR family CARD domain-containing protein 4 (Mus musculus) (Q3UP24 whole entry, the tested form may be a part): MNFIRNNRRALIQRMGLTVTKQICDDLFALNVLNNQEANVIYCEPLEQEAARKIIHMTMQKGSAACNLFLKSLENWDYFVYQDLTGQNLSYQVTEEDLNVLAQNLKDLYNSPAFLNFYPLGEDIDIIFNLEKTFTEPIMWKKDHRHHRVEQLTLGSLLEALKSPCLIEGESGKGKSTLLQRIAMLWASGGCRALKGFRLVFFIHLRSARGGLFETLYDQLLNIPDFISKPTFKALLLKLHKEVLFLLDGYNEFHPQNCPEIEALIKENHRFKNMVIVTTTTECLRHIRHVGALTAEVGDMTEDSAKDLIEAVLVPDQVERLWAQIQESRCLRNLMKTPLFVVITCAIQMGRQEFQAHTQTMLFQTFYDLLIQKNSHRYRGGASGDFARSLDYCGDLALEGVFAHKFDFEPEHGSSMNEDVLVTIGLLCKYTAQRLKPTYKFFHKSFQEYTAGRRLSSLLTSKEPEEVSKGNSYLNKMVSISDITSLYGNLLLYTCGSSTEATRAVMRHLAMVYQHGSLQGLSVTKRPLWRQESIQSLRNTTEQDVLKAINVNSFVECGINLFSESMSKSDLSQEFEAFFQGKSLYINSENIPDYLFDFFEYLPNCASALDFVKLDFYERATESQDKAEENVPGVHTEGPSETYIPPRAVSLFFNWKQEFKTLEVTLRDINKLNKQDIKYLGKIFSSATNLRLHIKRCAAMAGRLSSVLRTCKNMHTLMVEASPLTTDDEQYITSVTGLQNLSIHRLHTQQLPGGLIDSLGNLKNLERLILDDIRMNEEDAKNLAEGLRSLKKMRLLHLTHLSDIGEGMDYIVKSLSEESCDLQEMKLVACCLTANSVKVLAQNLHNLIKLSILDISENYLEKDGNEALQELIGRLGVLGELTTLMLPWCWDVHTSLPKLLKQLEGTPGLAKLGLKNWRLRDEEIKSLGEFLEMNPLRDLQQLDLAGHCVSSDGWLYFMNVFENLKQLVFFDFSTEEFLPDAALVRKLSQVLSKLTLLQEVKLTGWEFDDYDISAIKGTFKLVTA

As usually defined, the MRT last is the average time that molecules of a dose stay in the body. For orientation: Tmax means the time from dosing to the highest level. One may read the half-life as the time in which the quantity being followed falls by half. Higher therefore signals slow decline. For orientation: AUC(0-t) means the area under the concentration-time curve up to a stated or last time point. Read a high AUC(0-t) as more exposure. By Cmax is commonly meant the peak of the concentration-time curve. One may read the CL/F as the apparent clearance, not corrected for the fraction that reaches the circulation. For the molecule `CC(C)c1nn(Cc2nnc(-c3ccc(C(F)(F)F)nc3Cl)o2)c(=O)c2cc3sc(Cl)cc3n12`, the MRT last was determined as 3.27 h in data set [1] and 1.54 h in data set [14]. In addition, the Tmax in data set [2] is 4.8 min. Further, the inhibition entry in [3], in data set [12] and in [15] was “inactive” throughout. Also, the outcome in [4], in data set [7], in data set [10] and in data set [11] was Active. Moreover, the outcome in data set [5], in data set [9] and in data set [13] was inactive. The half-life in data set [6] was 2.06 h. Also, in data set [8], the Activity result was “Non-Toxic”. This molecule also showed an AUC(0-t) in data set [16] of 5210 ng·h/mL. In [17], this molecule came in with a Cmax of 3890 ng/mL. For the same molecule, the CL/F in [18] was 144 mL/min/kg.
